Measurements from publication PMC13077603, “Fluorine‐18‐Labeled Nucleotide Analogs Targeting Ecto‐5'‐Nucleotidase (CD73) for Positron Emission Tomography Imaging of Solid Tumors” (Angewandte Chemie (International Ed. in English), 2026).

Molecular target: T1, Human membrane‐bound CD73 (membrane preparation of MDA‐MB‐231 cell line) (Homo sapiens, UniProt P21589)
T1 construct: endogenous in cells; host or cells: MDA-MB-231 (human triple-negative breast cancer) membrane preparation
T1 sequence (P21589 27-574): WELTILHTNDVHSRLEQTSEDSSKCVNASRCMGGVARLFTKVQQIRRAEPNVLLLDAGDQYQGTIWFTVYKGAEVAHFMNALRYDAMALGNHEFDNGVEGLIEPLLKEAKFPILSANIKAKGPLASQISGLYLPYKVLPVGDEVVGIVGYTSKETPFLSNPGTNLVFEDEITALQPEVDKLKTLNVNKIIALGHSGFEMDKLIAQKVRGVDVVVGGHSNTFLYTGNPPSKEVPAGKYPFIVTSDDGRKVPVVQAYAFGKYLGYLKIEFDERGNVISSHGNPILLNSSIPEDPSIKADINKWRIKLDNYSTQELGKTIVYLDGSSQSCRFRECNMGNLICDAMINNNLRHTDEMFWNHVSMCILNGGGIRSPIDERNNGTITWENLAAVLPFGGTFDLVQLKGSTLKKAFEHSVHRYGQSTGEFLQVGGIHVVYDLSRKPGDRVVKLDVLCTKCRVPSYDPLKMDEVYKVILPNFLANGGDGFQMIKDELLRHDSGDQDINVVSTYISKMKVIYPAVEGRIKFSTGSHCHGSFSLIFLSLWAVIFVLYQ
Assay: CD73 enzyme inhibition assay, human membrane-bound CD73
Format: biochemical
Settings: membrane preparation of human TNBC MDA‐MB‐231 cell line, Km 14.8 µM, substrate AMP (5 µM)
Procedure: The CD73 enzyme inhibition assay of recombinant soluble CD73, membrane-bound human CD73, soluble rat CD73 and mouse CD73 was performed as previously described.^[16,35^]

- Ki: 2.78 nM
SMILES: CCCN(Cc1ccc(-c2cn(CCF)nn2)cc1)c1nc(Cl)nc2c1ncn2[C@@H]1O[C@H](COP(=O)(O)CP(=O)(O)O)[C@@H](O)[C@H]1O [compound 1]
